# Reference: paper PMC3811480, “The R Enantiomer of the Antitubercular Drug PA-824 as a Potential Oral Treatment for Visceral Leishmaniasis” (Antimicrobial Agents and Chemotherapy, 2013)
# “And” between values parts separate entries of the source, which are not always exact repeats. Equal values may be shown once. “Also recorded” adds a separate entry of the source. Read-outs that look alike come from different tables or passages of the source.
# Legend:
# [1] = tested on: lab-generated strains of nifurtimox-resistant T. brucei; details: cited from earlier work
# [2] = tested on: promastigotes of the LdBOB strain of L. donovani; experiment: Drug combination studies (fixed-ratio isobologram, 72 h); format: cell-based, Leishmania donovani; details: for EC50: Leishmania donovani, compound alone, duplicate cultures, read-out: Absolute EC50
# Method: The EC50s of each combination were determined after 72 h and plotted as an isobologram ([23]).
# [3] = tested on: L. donovani intracellular amastigotes in mouse peritoneal macrophages; details: comparator value, earlier work of the authors; cited from earlier work
# [4] = tested on: L. donovani amastigotes (LV9); experiment: In vivo drug sensitivity, mouse model of visceral leishmaniasis (liver parasite burden); set-up: species or system Leishmania donovani; details: for suppression of infection (liver parasite burden) / suppression of infection (liver parasite burden) compared to untreated controls: BALB/c mice; for suppression of infection (liver parasite burden) compared to untreated controls: 30 mg kg^−1 orally twice daily for 5 days
# [5] = tested on: T. cruzi amastigotes in Vero cells; experiment: In-Vero-cell T. cruzi drug sensitivity assay (72 h, high-content imaging); format: cell-based; details: Trypanosoma cruzi; T. cruzi amastigote (in Vero cell)
# [6] = tested on: Trypanosoma cruzi Silvio-X10/7 clone A1 epimastigotes; experiment: In vitro drug sensitivity assay, T. cruzi epimastigotes (72 h, resazurin); format: cell-based; details: T. cruzi epimastigote
# [7] = tested on: T. brucei bloodstream forms (S427 Single Marker); details: previously determined value; cited from earlier work
# [8] = tested on: Leishmania donovani LdBOB promastigotes; experiment: In vitro drug sensitivity assay, L. donovani promastigotes (72 h, resazurin); format: cell-based; details: for EC50: Leishmania donovani; for activity against L. donovani promastigotes: highest concentration tested 50 μM
# HepG2 cells = experiment: HepG2 counterscreen (resazurin); format: cell-based; details: Homo sapiens; Mammalian (HepG2); n = 2
# [9] = tested on: L. donovani intracellular amastigotes in mouse peritoneal macrophages; experiment: In-macrophage drug sensitivity assay; format: cell-based, Leishmania donovani; details: for EC50: L. donovani amastigote (in macrophage); for activity against L. donovani intracellular amastigotes: highest concentration tested 50 μM
# [10] = Tolerability in mice during the efficacy study; format: in vivo, BALB/c mice; details: 30 or 100 mg kg^−1 orally twice daily for 5 days
# Method: All animal experiments were approved by the University Ethical Review Committee and performed under the Animals (Scientific Procedures) Act 1986 in accordance with the European Communities Council Directive (86/609/EEC). Groups of female BALB/c mice (5 per group) were inoculated intravenously with approximately 2 × 10^7 L. donovani amastigotes (LV9; WHO designation MHOM/ET/67/HU3) harvested from the spleen of an infected hamster ([24]). […] Drug dosing solutions were prepared fresh each day, and the vehicle for both enantiomers of PA-824 was 10% (vol/vol) dimethyl sulfoxide (DMSO), 40% polyethylene glycol 400, and 50% deionized water. On day 14 postinfection, all animals were humanely euthanized and parasite burdens were determined by counting the number of amastigotes/500 liver cells ([11]). Parasite burden is expressed in Leishmania donovani units (LDU), mean number of amastigotes per liver cell × mg weight of liver ([25]).
# [11] = Exposure in mice after acute oral dosing (blood levels, UPLC-MS/MS); format: in vivo, BALB/c mice; details: for half-life: read-out: elimination half-life (t1/2) (converted); for Tmax: read-out: time of maximum concentration in blood
# Method: The R and S enantiomers of PA-824 (50 mg kg^−1) were orally administered to BALB/c mice. Blood samples (10 μl) were collected from the tail vein of each animal into sample storage tubes (Micronic BV) containing deionized water (20 μl) at defined intervals postdose and stored at −80°C until analysis. The level of each enantiomer in mouse blood was determined by UPLC-MS/MS ([20]).
# in vitro = details: mouse, plasma
# LdBOB promastigotes = experiment: PA-824-mediated cell killing (time to kill, wash-out viability); format: cell-based, Leishmania donovani; details: 10 times EC50, promastigotes
# [12] = tested on: Transgenic LdBOB promastigotes expressing the Leishmania major nitroreductase (LmjF.05.0660); experiment: microbe, parasite or virus in culture; format: cell-based, Leishmania donovani; details: for EC50: Leishmania major, read-out: EC50 against NTR-overexpressing promastigotes
# [13] = mouse liver microsomes, 0.5 μM compound
# [14] = tested on: Trypanosoma brucei brucei S427 29-13 procyclic trypomastigotes; experiment: In vitro drug sensitivity assay, T. brucei procyclics (72 h, resazurin); format: cell-based
# [15] = tested on: Mycobacterium tuberculosis; set-up: method as in PMID 22023140; details: cited from earlier work
# [16] = tested on: T. brucei bloodstream forms (S427 Single Marker); experiment: In vitro drug sensitivity assay, bloodstream-form T. brucei; format: cell-based; details: Trypanosoma brucei
# [17] = mouse PPB, equilibrium dialysis
# [18] = L. donovani promastigote, read-out: EC50
# [19] = WT LdBOB promastigotes, nitroreductase experiment (Fig. 2), read-out: EC50 against wild-type (WT) promastigotes
# [20] = Leishmania donovani, Peritoneal macrophage
# [21] = Leishmania donovani, Peritoneal macrophage, L. donovani in macrophages, from EC50 and Hill slope, read-out: EC90
# [22] = BALB/c, mouse, whole blood, 50 mg kg^−1 oral
# [23] = 100 mg kg^−1 orally twice daily for 5 days
# [24] = fixed-ratio isobologram, promastigotes
smiles,measurement,setting,value
CSc1ccc(OCc2ncc([N+](=O)[O-])n2C)cc1 [fexinidazole],sensitivity of nifurtimox-resistant T. brucei,[1],cross resistant
"Cn1c([N+](=O)[O-])cnc1COc1ccc(S(C)(=O)=O)cc1 [fexinidazole sulfone, reference compound]",EC50,[2]; Fig. 3A experiment,8.8 µM
same,EC50,[3],5.3 µM
CCCCCCCCCCCCCCCCOP(=O)([O-])OCC[N+](C)(C)C [miltefosine],suppression of infection (liver parasite burden),[4]; 12 mg kg^−1 orally once daily for 5 days,68.7%
"O=[N+]([O-])c1cn2c(n1)OC[C@@H](OCc1ccc(OC(F)(F)F)cc1)C2 [(S)-PA-824, reference compound]",EC50,[5],> 30 µM
same,EC50,[6],3.4 ± 0.03 µM
same,EC50,[7],37.8 ± 3.2 µM
same,EC50,[8]; [18],0.9 ± 0.1 µM
same,EC50,[8]; [19],0.96 ± 0.02 µM
same,EC50,[2]; Fig. 3B experiment,0.74 µM
same,EC50,HepG2 cells,> 50 µM
same,EC50,[9],4.92 ± 0.3 µM
same,EC50,[9]; [20],4.9 ± 0.3 µM
same,EC90,[9]; [21],22 µM
same,tolerability in mice,[10],extremely well tolerated
same,oral bioavailability,[11],orally bioavailable
same,maximum concentration in blood,[11]; 50 mg kg^−1 oral,"11,600 ng ml^−1"
same,concentration at 24 h,"[11]; BALB/c, mouse, whole blood, 50 mg kg^−1 oral, 24 h",900 ng/mL
same,half-life,[11]; [22],~5 h
same,Tmax,[11]; [22],4 h
same,fraction unbound,in vitro,0.21
same,cytocidal or cytostatic,LdBOB promastigotes,leishmanicidal rather than cytostatic
same,time after which cell numbers begin to decline,LdBOB promastigotes,12 h
same,time at which no intact/live parasites remain,LdBOB promastigotes,36 h
same,EC50,[12],0.8 ± 0.04 µM
same,suppression of infection (liver parasite burden) compared to untreated controls,[4],approximately 35%
same,suppression of infection (liver parasite burden),[4]; [23],comparable to those seen in drug-free animals; also recorded: less efficacious
same,dose dependence of leishmanicidal effect,"[4]; earlier in vivo study, range of doses down to 0.4 mg kg^−1, twice daily orally (Fig. S1)",apparent absence of a dose-dependent leishmanicidal effect
same,CLint,[13],1.6 mL/min/g
same,EC50,[14],36.5 ± 2.5 µM
same,solubility,physchem,> 250 µM
CC1CS(=O)(=O)CCN1/N=C/c1ccc([N+](=O)[O-])o1 (stereo not drawn) [nifurtimox],EC50,[8]; [19],5.6 ± 0.16 µM
same,EC50,[12],0.2 ± 0.09 µM
same,increase in sensitivity of nitroreductase-overexpressing parasites,[12]; transgenic versus wild-type,26 fold
O=[N+]([O-])c1cn2c(n1)OC[C@H](OCc1ccc(OC(F)(F)F)cc1)C2 [(R)-PA-824],EC50,[5],4.4 ± 0.5 µM
same,EC50,[6],0.7 ± 0.08 µM
same,EC50,[8]; [18],0.16 ± 0.03 µM
same,EC50,[2]; Fig. 3A experiment,0.18 µM
same,EC50,[2]; Fig. 3B experiment,0.1 µM
same,interaction in combination with (S)-PA-824,[2]; [24],mild antagonistic behavior; also recorded: progressively more antagonistic; also recorded: mildly antagonistic
same,interaction in combination with fexinidazole sulfone,[2]; [24],act additively; also recorded: additive effect
same,EC50,HepG2 cells,> 50 µM
same,EC50,[9],0.93 ± 0.06 µM
same,EC50,[9]; [20],0.9 ± 0.1 µM
same,EC90,[9]; [21],3.4 µM
same,EC90,"[9]; Leishmania donovani, Peritoneal macrophage, not adjusted for plasma protein binding, read-out: EC90 (equivalent mass concentration)",1.2 µg/mL
same,tolerability in mice,[10],extremely well tolerated
same,oral bioavailability,[11],orally bioavailable
same,maximum concentration in blood,[11]; 50 mg kg^−1 oral,"10,500 ng ml^−1"
same,half-life,[11]; [22],~2 h
same,Tmax,[11]; [22],4 h
same,fraction unbound,in vitro,0.22
same,cytocidal or cytostatic,LdBOB promastigotes,leishmanicidal rather than cytostatic; also recorded: cytocidal rather than cytostatic
same,time after which cell numbers begin to decline,LdBOB promastigotes,12 h
same,time at which no intact/live parasites remain,LdBOB promastigotes,24 h
same,EC50,[12],0.11 ± 0.005 µM
same,suppression of infection (liver parasite burden) compared to untreated controls,[4],approximately 35%
same,suppression of infection (liver parasite burden),[4]; [23],> 99% and 99.9%
same,CLint,[13],0.65 mL/min/g
same,MIC,[15],> 100 µM
same,EC50,[14],25 ± 0.2 µM
same,solubility,physchem,> 250 µM
same,EC50,[16],14.9 ± 0.7 µM
FC(F)(F)Oc1ccc(CO[C@@H]2COc3nccn3C2)cc1 [(S)-des-nitro-PA-824],activity against L. donovani promastigotes,[8],inactive
same,activity against L. donovani intracellular amastigotes,[9],inactive
FC(F)(F)Oc1ccc(CO[C@H]2COc3nccn3C2)cc1 [(R)-des-nitro-PA-824],fraction unbound (plasma protein binding),[17],0.45
same,activity against L. donovani promastigotes,[8],inactive
same,activity against L. donovani intracellular amastigotes,[9],inactive
O.O.O.O.O.O.O.O.O.O=C([O-])[C@@H]1[O][Sb](=[O])([O][Sb]2(=[O])[O][C@H]([C@H](O)CO)[C@H](O)[C@H](C(=O)[O-])[O]2)[O][C@H]([C@H](O)CO)[C@@H]1O.[Na+].[Na+].[Na+] (stereo partly drawn) [sodium stibogluconate],suppression of infection (liver parasite burden),[4]; 15 mg kg^−1 subcutaneously once daily for 5 days,41.9%
